Reference: patent US20110065663A1, “ANTI-CANCER COMBINATION THERAPY” (Katholieke Universiteit Leuven, K.U. Leuven R&D, priority 2008, published 2011)
Read-outs that look alike come from different tables or passages of the source.

Assays:
Assay type in all cases: cell-based, human
[1] = tested on: MCF-7 cells; assay: Tumor cell proliferation assay, uninfected MCF-7 cells; details: for IC50: Homo sapiens, uninfected MCF-7; for Ratio (1)/(2) MCF-7: IC50 in the absence of TPi to IC50 in the presence of TPi
Protocol: MCF-7 and MCF-7/HYOR cells were seeded in 48-well plates at 10,000 cells/cm^2. […] of the test compounds (5FU, 5′DFUR, CIdUrd, BrdUrd, IdUrd and TFT) with or without 10 μM TPi were added. The cells were incubated for another 4 days, trypsinized and counted by a Coulter counter (Analis, Suarlée, Belgium). In some experiments, the antibiotic plasmocin was added one or three days before addition of the test compounds.

[2] = tested on: MCF-7/HYOR cells; assay: Nucleotide incorporation assay, MCF-7/HYOR compared with MCF-7 cells; details: 1 μCi radiolabeled compound; FIG. 4
Protocol: MCF-7 and MCF-7/HYOR cells were seeded at 10,000 cells/cm. After 48 hours, cells were treated with 1 μCi of ^3H-labeled nucleoside with or without 10 μM TPi. 16 h later, the medium was removed and the cells were washed twice with PBS. Next, the cells were trypsinized, transferred to Eppendorf tubes and centrifuged for 10 minutes at 1,400 rpm. The pellet was resuspended in 1 ml absolute ice-cold methanol and kept on ice for 20 minutes. After centrifugation for 20 minutes at 13,000 rpm the pellet was washed twice with methanol, resuspended in methanol and transferred to scintillation vials containing 9 ml of Ready safe liquid scintillation reagent (‘Hisafe 3’, Perkin Elmer, Waltham, Mass.). The radioactivity was measured by a Liquid scintillation analyzer (2300 TR, Packard, Canberra, Australia).

[3] = tested on: MCF-7/HYOR cells; assay: Tumor cell proliferation assay, M. hyorhinis-infected MCF-7 cells; details: for IC50: Homo sapiens, MCF7; for Ratio (1)/(2) MCF-7/HYOR: IC50 in the absence of TPi to IC50 in the presence of TPi; for Anti-proliferative activity in MCF-7/HYOR after three days pre-incubation with doxycycline / Anti-proliferative activity in MCF-7/HYOR after three days pre-incubation with plasmocin: 3 days
Protocol: Mycoplasma hyorhinis (ATCC 17981) was obtained from the American Type Culture Collection (ATCC, Manassas, Va.). The freeze-dried bacteria were reconstituted by adding 1 ml of DMEM. […] The co-culture of MCF-7 cells and M. hyorhinis was maintained under the same conditions as the uninfected MCF-7 cells. […] The cells were incubated for another 4 days, trypsinized and counted by a Coulter counter (Analis, Suarlée, Belgium).

[4] = tested on: MCF-7/HYOR cell cultures; assay: Nucleoside metabolism experiments, distribution of drug-derived radiolabel in MCF-7/HYOR cell cultures; details: MCF-7/HYOR
Protocol: Next, the cells were trypsinized, transferred to Eppendorf tubes and centrifuged for 10 minutes at 1,400 rpm. The pellet was resuspended in 1 ml absolute ice-cold methanol and kept on ice for 20 minutes. After centrifugation for 20 minutes at 13,000 rpm the pellet was washed twice with methanol, resuspended in methanol and transferred to scintillation vials containing 9 ml of Ready safe liquid scintillation reagent (‘Hisafe 3’, Perkin Elmer, Waltham, Mass.). The radioactivity was measured by a Liquid scintillation analyzer (2300 TR, Packard, Canberra, Australia). […] Next, the cells were incubated in 0.5 ml absolute ice-cold methanol and kept on ice for 20 minutes. After centrifugation for 20 minutes at 13,000 rpm, the supernatant was subjected to HPLC analysis. […] The amount of compound incorporated into nucleic acids was measured as described above.

[5] = MCF7, 96 h, no TPi, 4 days, read-out: IC50 MCF-7 As such
[6] = MCF7, with 10 μM TPi, read-out: IC50 MCF-7 +TPi (10 μM)
[7] = M. hyorhinis-infected MCF-7, no TPi, no plasmocin, read-out: IC50 MCF-7/HYOR As such
[8] = M. hyorhinis-infected MCF-7, with 10 μM TPi, read-out: IC50 MCF-7/HYOR +TPi (10 μM)
[9] = plasmocin 25 μg/ml, 1 day pretreatment, read-out: IC50 MCF-7/HYOR +plasmocin (25 μg/ml) 1 day prior to addition of test compounds
[10] = plasmocin 25 μg/ml, 3 days pretreatment, read-out: IC50 MCF-7/HYOR +plasmocin (25 μg/ml) 3 days prior to addition of test compounds

Row | Structure (SMILES) | IC50 [1, 5] | IC50 [1, 6] | Ratio (1)/(2) MCF-7 [1] | Incorporation into nucleic acids, infected versus uninfected MCF-7 cells (in words) [2] | IC50 [3, 7] | IC50 [3, 8] | Ratio (1)/(2) MCF-7/HYOR [3] | also measured
1 | O=c1[nH]cc(F)c(=O)[nH]1 [5FU, 5-fluorouracil] | 810 ± 240 nM | 620 ± 290 nM | 1.3 | no difference | 750 ± 240 nM | 530 ± 250 nM | 1.4 | IC50 [3, 9]: 740 ± 110 nM; IC50 [3, 10]: 670 ± 110 nM
2 | O=c1[nH]c(=O)n([C@H]2C[C@H](O)[C@@H](CO)O2)cc1Br [BrdUrd, 5-bromo-2′-deoxyuridine] | 590 ± 100 nM | 360 ± 10 nM | 1.6 | – | 8600 ± 1170 nM | 840 ± 240 nM | 10 | Reduction of incorporation into nucleic acids in infected MCF-7/HYOR cells in comparison with uninfected MCF-7 cells [2]: 45 fold; IC50 [3, 9]: 2220 ± 1100 nM; IC50 [3, 10]: 740 ± 200 nM; % of drug-derived radiolabel, In medium, Base ([4]; 1 μCi, 16 h): 49.5%; % of drug-derived radiolabel, In medium, Nucleoside ([4]; 1 μCi, 16 h): 42.0%; % of drug-derived radiolabel, In the cytosol of the cells, 5′-diphosphate ([4]; 1 μCi, 16 h): 0.2%; % of drug-derived radiolabel, In the cytosol of the cells, 5′-monophosphate ([4]; 1 μCi, 16 h): 0.4%; % of drug-derived radiolabel, In the cytosol of the cells, 5′-triphosphate ([4]; 1 μCi, 16 h): 0.2%; % of drug-derived radiolabel, In the cytosol of the cells, Nucleoside/nucleobase ([4]; 1 μCi, 16 h): 6.4%; % of drug-derived radiolabel, Incorporatio into DNA/RNA ([4]; 1 μCi, 16 h): 1.4%; Share incorporated into the nucleic acids in the presence of TPi ([4]; in the presence of TPi): almost all
3 | O=c1[nH]c(=O)n([C@H]2C[C@H](O)[C@@H](CO)O2)cc1Cl [CldUrd, 5-chloro-2′-deoxyuridine] | 760 ± 190 nM | 640 ± 150 nM | 1.2 | – | 13000 ± 2870 nM | 1400 ± 700 nM | 9.3 | –
4 | O=c1[nH]c(=O)n([C@H]2C[C@H](O)[C@@H](CO)O2)cc1I [IdUrd, 5-iodo-2′-deoxyuridine] | 1100 ± 260 nM | 980 ± 390 nM | 1.1 | – | 12000 ± 500 nM | 310 ± 50 nM | 39 | –
5 | O=c1[nH]cc(C(F)(F)F)c(=O)[nH]1 [TF-thymine] | – | – | – | no difference | – | – | – | –
6 | Nc1ccn([C@@H]2O[C@H](CO)[C@@H](O)[C@@H]2O)c(=O)n1 [araC, cytarabine] | 50 ± 4 nM | 48 ± 9 nM | 1.0 | – | 1200 ± 800 nM | 68 ± 3 nM | 17 | Anti-proliferative activity in MCF-7/HYOR after three days pre-incubation with doxycycline [3]: restores; Anti-proliferative activity in MCF-7/HYOR after three days pre-incubation with plasmocin ([3]; plasmocin 25 μg/ml): restores
7 | Nc1nc(Cl)nc2c1ncn2[C@H]1C[C@H](O)[C@@H](CO)O1 [cladribine] | 460 ± 150 nM | 390 ± 160 nM | 1.2 | – | 13000 ± 3000 nM | 780 ± 230 nM | 17 | Reduction of cytostatic activity in infected MCF-7/HYOR compared to control MCF-7 cells ([3]; M. hyorhinis infection): about 30 fold; Anti-proliferative activity in MCF-7/HYOR after three days pre-incubation with doxycycline [3]: restores; Anti-proliferative activity in MCF-7/HYOR after three days pre-incubation with plasmocin ([3]; plasmocin 25 μg/ml): restores
8 | O=c1ccn([C@H]2C[C@H](O)[C@@H](CO)O2)c(=O)[nH]1 [dUrd, 2′-deoxyuridine] | – | – | – | – | – | – | – | Reduction of incorporation into nucleic acids in infected MCF-7/HYOR cells in comparison with uninfected MCF-7 cells [2]: 3 fold
9 | Cc1c[nH]c(=O)[nH]c1=O [thymine] | – | – | – | no difference | – | – | – | –
10 | O=c1cc[nH]c(=O)[nH]1 [uracil] | – | – | – | no difference | – | – | – | –
